Source: PMC12473165, “Theranostic Potential of a New ^64Cu-Labeled NOTA-R954 Peptide Conjugate for Kinin B1R Expressing Prostate Cancer” (Pharmaceutics, 2025)
Square brackets hold non-standard residues; d marks the D form. Peptide text beside a SMILES is read from it. Oic = O=C(O)[C@@H]1C[C@@H]2CCCC[C@@H]2N1; d2Nal = N[C@H](Cc1ccc2ccccc2c1)C(=O)O; αMeF = C[C@](N)(Cc1ccccc1)C(=O)O; Orn = NCCC[C@H](N)C(=O)O

How the values were obtained:
hB2R [1] = target: T1, hB2R (Homo sapiens, UniProt P30411); assay: Radioligand competition binding on HEK293 cells stably expressing hB2R; conditions: competition with 1 nM [3H]BK, 1-2 h, serum-free DMEM, means of 2 independent experiments in triplicates, read-out: B2R HEK293 IC50
T1 sequence (P30411 1-391): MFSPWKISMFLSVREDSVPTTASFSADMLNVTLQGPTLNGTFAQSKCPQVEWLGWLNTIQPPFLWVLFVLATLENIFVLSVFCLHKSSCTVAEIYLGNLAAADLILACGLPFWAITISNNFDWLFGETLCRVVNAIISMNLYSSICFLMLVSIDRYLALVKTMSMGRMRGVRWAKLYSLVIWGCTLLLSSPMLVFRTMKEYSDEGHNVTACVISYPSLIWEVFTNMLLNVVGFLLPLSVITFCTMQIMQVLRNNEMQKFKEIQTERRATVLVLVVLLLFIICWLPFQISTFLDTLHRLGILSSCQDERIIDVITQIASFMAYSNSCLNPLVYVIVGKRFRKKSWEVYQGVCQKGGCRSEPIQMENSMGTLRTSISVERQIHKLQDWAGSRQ
Protocol: Radiolabeled ligand competition binding assays were performed on HEK293 cells stably expressing hB1R or hB2R, as previously described. Cells were cultured in 24-well plates and incubated with 4 nM [^3H]Lys[Leu^8]desArg^9BK (for B1R studies) (ART1583; 90–120 Ci/mmol; American Radiolabeled Chemicals) or 1 nM [^3H]BK (for B2R studies) (NET706; 109 Ci/mmol; Perkin-Elmer, Woodbridge, ON, Canada) in serum-free DMEM for 1–2 h in the absence or presence of increasing concentrations of competitors (10^−11–10^−5M). Radioactivity in the samples was measured using a β-scintillation counter (Tri-Carb 2800; Perkin-Elmer). Binding affinities were expressed as IC50 values, calculated using GraphPad Prism version 8.2.1 software (GraphPad Software, San Diego, CA, USA).

native hB1R = target: T2, native hB1R (Homo sapiens, UniProt P46663); assay: Human umbilical vein (HUV) contractility bioassay, B1R; conditions: isolated human umbilical vein contraction, DBK agonist at submaximal concentration; means of 2 independent experiments
T2 construct: from tissue; host or cells: isolated human umbilical vein (HUV)
T2 sequence (P46663 1-353): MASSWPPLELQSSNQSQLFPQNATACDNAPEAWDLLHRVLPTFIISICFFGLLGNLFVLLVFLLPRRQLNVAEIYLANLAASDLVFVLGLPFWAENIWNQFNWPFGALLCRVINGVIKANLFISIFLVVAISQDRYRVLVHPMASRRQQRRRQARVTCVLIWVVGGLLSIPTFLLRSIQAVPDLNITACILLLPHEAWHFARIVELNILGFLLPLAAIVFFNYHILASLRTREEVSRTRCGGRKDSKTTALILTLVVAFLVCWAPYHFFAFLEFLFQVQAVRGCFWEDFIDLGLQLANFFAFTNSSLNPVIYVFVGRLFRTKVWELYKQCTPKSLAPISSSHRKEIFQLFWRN
Protocol: The potency (apparent affinity) of non-radioactive NOTA-βAla-R954 peptide conjugates at native inducible B1R was assessed using human tissue bioassays with isolated umbilical veins, as previously described. Collection of umbilical cords for these bioassays was approved by the CHUS Human Research Ethics Committee (protocol #97-14; 21 March 1997), and maternal consent was obtained in all cases. Antagonist affinity was expressed in terms of IC50, which represents the molar concentration of an antagonist that reduces the response to a submaximal concentration of the DBK agonist by 50%.

hB2R [2] = target: T1, hB2R; assay: Human umbilical vein (HUV) contractility bioassay, B2R; set-up: native (HUV) human kinin B1R and B2R; from tissue; host or cells: isolated human umbilical vein (HUV); conditions: isolated human umbilical vein contraction; means of 2 independent experiments
hB1R [3] = target: T3, hB1R (Homo sapiens, UniProt P46663); assay: Radioligand competition binding on HEK293 cells stably expressing hB1R; set-up: expressed in transfected cells; host or cells: QBI-HEK293A (lentiviral transduction, puromycin selection); conditions: HEK293 cells stably expressing hB1R; competition with 4 nM [3H]Lys[Leu8]desArg9BK, 1-2 h, serum-free DMEM; means of 2 independent experiments in triplicates; read-out: B1R HEK293 IC50
T3 sequence (P46663 1-353): T2 sequence (P46663 1-353)

hB1R [4] = target: T3, hB1R; assay: NFAT-eGFP reporter assay in CHO-hB1R-NFAT-eGFP cells; format: cell-based; set-up: expressed in transfected cells; host or cells: CHO (hB1R-expressing line, then transduced with NFAT-eGFP reporter)
From the text: The pLenti-6V5-NFAT-eGFP vector was generated from the pSIRV-NFAT-eGFP vector (a gift from Peter Steinberger, Addgene plasmid #118031). Briefly, NFAT-eGFP gene was PCR amplified using the following primers: 5′-[…]-3′ and 5′-[…]-3′). The amplified gene was then ligated into the ClaI and AgeI restriction sites of the pLenti-6V5 vector. Lentiviruses were produced using the pLenti-6V5-NFAT-eGFP vector in HEK293T cells and used to transduce a hB1R-expressing CHO cell line, followed by selection with 10 µg/mL blasticidin. […] Clones were grown in 4000 nanowells/well in 24-well plates and re-plated into 96-well plates after initial expansion via the ALS CellCelector™ (Sartorius Corporation, Bohemia, NY, USA). After clonal expansion, individual cell lines were evaluated based on their ratio of stimulated fluorescence to basal expression to determine maximum sensitivity.
Fluorescence assays performed on CHO-hB1R-NFAT-eGFP cells. Target cells were plated at 10,000 cells/well in a 96-well microplate (opaque black wells with clear flat bottom, Thermo Scientific, Rockford, IL, USA) using RPMI 1640 medium with 10% fetal bovine serum (FBS). After 24 h, the medium was replaced by RPMI without FBS and phenol red. […] Fluorescence was measured using a TECAN M1000 (Tecan Group Ltd., Männedorf, Switzerland) multimode microplate reader with excitation at 488 nm and emission at 507 nm. Each data point represents a ratio of two values, divided by the average fluorescence of six control wells. […] Antagonist affinity (Kb) was estimated from functional inhibition curves using the Gaddum (Schild) equation assuming competitive antagonism at human B1R: Kb = [B]/(dose-ratio–1), where [B] is the antagonist concentration, and the dose ratio is EC50 + Compound/EC50.

- IC50 (hB2R [1]): > 10000 nM
- IC50 (native hB1R): 3 nM
- IC50 (hB2R [2]): > 10000 nM
- IC50 (hB1R [3]): 2 nM
- IC50 (hB1R [4]; hB1R-stably expressing CHO-NFAT cells, antagonist potency, means of two independent experiments, read-out: CHO-NFAT IC50 (Table S1)): 1.4 nM
- Kb (hB1R [4]; read-out: B1R-NFAT CHO Kb): 1.4 nM
SMILES: CC[C@H](C)[C@H](NC(=O)[C@@H](Cc1ccc2ccccc2c1)NC(=O)[C@H](CO)NC(=O)[C@](C)(Cc1ccccc1)NC(=O)CNC(=O)[C@@H]1CCCN1C(=O)[C@@H]1C[C@@H]2CCCC[C@@H]2N1C(=O)[C@H](CCCNC(=N)N)NC(=O)[C@H](CCCN)NC(C)=O)C(=O)O [R954, AcOrn[Oic^2,^(αMe)Phe5,DβNal^7,Ile^8]desArg^9-bradykinin] (Ac-[Orn]R[Oic]PG[αMeF]S[d2Nal]I-OH)
